Tests used:
[1] = Cmax in HIV-1 infected children at 12 mg/kg, po administered once daily by HPLC; assay type: ADME, organism-based; design: dose 12 mg/kg, route oral; conditions: human, in vivo
[2] = Cmax in HIV-1 infected children at 10 to 15 mg/kg, po administered once daily by HPLC; assay type: ADME, organism-based; design: dose 10-15 mg/kg, route oral; conditions: human, in vivo
[3] = Cmax in HIV-1 infected children at 14.4 mg/kg, po administered once daily by HPLC; assay type: ADME, organism-based; design: dose 14.4 mg/kg, route oral; conditions: human, in vivo
[4] = test system: Homo sapiens; assay: AUC (0 to t) in HIV-1 infected children at 12 mg/kg, po administered once daily by HPLC; assay type: ADME, organism-based, Plasma; design: dose 12 mg/kg, route oral; conditions: in vivo
[5] = test system: Homo sapiens; assay: AUC (0 to t) in HIV-1 infected children at 10 to 15 mg/kg, po administered once daily by HPLC; assay type: ADME, organism-based, Plasma; design: dose 10-15 mg/kg, route oral; conditions: in vivo
[6] = test system: Homo sapiens; assay: AUC (0 to t) in HIV-1 infected children at 14.4 mg/kg, po administered once daily by HPLC; assay type: ADME, organism-based, Plasma; design: dose 14.4 mg/kg, route oral; conditions: in vivo
[7] = Apparent oral clearance in HIV-1 infected children at 12 mg/kg, po administered once daily by HPLC; assay type: ADME, organism-based; design: dose 12 mg/kg, route oral; conditions: human, in vivo
[8] = Apparent oral clearance in HIV-1 infected children at 13.3 mg/kg, po administered once daily by HPLC; assay type: ADME, organism-based; design: dose 13.3 mg/kg, route oral; conditions: human, in vivo
[9] = Apparent oral clearance in HIV-1 infected children at 14.4 mg/kg, po administered once daily by HPLC; assay type: ADME, organism-based; design: dose 14.4 mg/kg, route oral; conditions: human, in vivo
[10] = test system: Human immunodeficiency virus 1; assay: Antiviral activity against HIV1 infected in children assessed as decrease in viral burden at 14.4 mg/kg once daily measured after 3 months; assay type: functional

Cmax [1]: 4090 ng/mL
Cmax [2]: 5520 ng/mL
Cmax [3]: 3710 ng/mL
AUC [4]: 60000 ng·h/mL
AUC [5]: 63600 ng·h/mL
AUC [6]: 65200 ng·h/mL
CL/F [7]: 3.17 mL/min/kg
CL/F [8]: 5 mL/min/kg
CL/F [9]: 3.5 mL/min/kg
SMILES: O=C1Nc2ccc(Cl)cc2[C@@](C#CC2CC2)(C(F)(F)F)O1 [EFAVIRENZ]
fold change (FC) [10]: 2.5

— ChEMBL document CHEMBL1671668, “Is the recommended dose of efavirenz optimal in young West African human immunodeficiency virus-infected children?” (Antimicrob Agents Chemother, 2009)
